Source: patent publication US20220408731A1, “MODIFIED ANTIMICROBIAL PEPTIDES” (priority 2021, published 2022)
In brackets after ≈: the same amount, converted by molar mass. Read-outs that look alike come from different tables or passages of the source. Bridge positions count the residues as written; N and C are the ends. Square brackets hold non-standard residues; d marks the D form. Peptide text beside a SMILES is read from it. Dab = NCC[C@H](N)C(=O)O

How the values were obtained:
[1] = system: Colletotrichum gloeosporioides; conditions: unit from method, none in Table 19
[2] = system: Botrytis cinerea
[3] = system: B. cinerea; assay: Drop inoculation assay on detached Nicotiana benthamiana leaves (semi-in planta); format: in vivo, Botrytis cinerea; conditions: detached N. benthamiana leaves, 48 h; no single concentration stated
[4] = system: Cercospora sojina; conditions: unit from method, none in Table 19
[5] = system: Alternaria alternata; conditions: unit from method, none in Table 19
[6] = system: Coccidioides sp.; format: cell-based
[7] = system: C. parapsilosis; assay: Antifungal MIC, CLSI M27/M38, half-strength potato dextrose broth; format: cell-based, Candida parapsilosis; conditions: C. parapsilosis ATCC 22019; 24-72 hours
Method: (§1) Testing for antifungal activity used half-strength potato dextrose broth for peptides and RPMI for comparator antifungals fluconazole and voriconazole. CLSI M27 and M38 methodologies used for to measure MICs. Minimal Inhibitory Concentration (MIC) is the concentration of the compound, protein, or peptide at which there is no significant growth of the microorganism relative to the growth of the microorganism in growth medium lacking the compound, protein, or peptide.
(§2) […] The concentration range for peptides in potato dextrose broth was 0.06-2 mcg/ml, the concentration range for fluconazole was 0.125-64 mcg/ml, and the concentration range for voriconazole was 0.03-16 mcg/ml. MICs were determined at 24-72 hours.

[8] = system: Fusarium (F. solani); assay: as above; format: cell-based; conditions: Fusarium F4 (F. solani)
Method: as §1, §2

[9] = system: Aspergillus fumigatus; assay: as above; format: cell-based
Method: as §1, §2

[10] = system: C. krusei; assay: as above; format: cell-based; conditions: C. krusei ATCC 6258; 24-72 hours
Method: as §1, §2

[11] = system: Fusarium (F. oxysporum); assay: as above; format: cell-based
Method: as §1, §2

[12] = system: P. variotii; assay: as above; format: cell-based; conditions: P. variotii MYA-363; 24-72 hours
Method: as §1, §2

[13] = system: Candida auris; assay: as above; format: cell-based
Method: as §1, §2

[14] = system: Candida albicans; assay: as above; format: cell-based
Method: as §1, §2

| Compound | MIC (μM) Botrytis cinerea [2] | MIC Values (μM) against B. cinerea [2] | SFM + 2 mM CaCl2 MIC [2] | SFM + 100 mM KCl MIC [2] | SFM + 100 mM NaCl MIC [2] | SFM MIC [2] | MIC 100% ([6]; Coccidioides sp. Cocci1) | MIC 100% ([6]; Coccidioides sp. Cocci2) | MIC 100% ([6]; Coccidioides sp. DI17-143) | MIC 100% [7] | MIC 100% [8] | MIC 100% ([9]; Aspergillus fumigatus AF293) | MIC 100% ([9]; Aspergillus fumigatus DI15-106) | MIC 100% ([9]; Aspergillus fumigatus DI15-116) | MIC 100% [10] | MIC 100% ([11]; Fusarium F1 (F. oxysporum)) | MIC 100% ([11]; Fusarium F2 (F. oxysporum)) | MIC 100% [12] | MIC 100% ([13]; Candida auris DI17-46) | MIC 100% ([13]; Candida auris DI17-47) | other results |
| --- | --- | --- | --- | --- | --- | --- | --- | --- | --- | --- | --- | --- | --- | --- | --- | --- | --- | --- | --- | --- | --- |
| CC[C@H](C)[C@@H]1NC(=O)[C@H](CCCNC(=N)N)NC(=O)[C@H]([C@@H](C)O)NC(=O)[C@H](Cc2ccccc2)NC(=O)[C@H](Cc2c[nH]c3ccccc23)NC(=O)[C@H](Cc2ccccc2)NC(=O)[C@H](CCCNC(=N)N)NC(=O)[C@H](CCCNC(=N)N)NC(=O)[C@H](CC(C)C)NC(=O)[C@H](Cc2ccccc2)NC(=O)CNC(=O)[C@H](CCCCN)NC(=O)[C@@H](NC(=O)[C@H](CCCNC(=N)N)NC(=O)CNC(=O)CN)CSSC[C@@H](C(N)=O)NC1=O [GMA4C_V9] (H-GGRCKGFLRRFWFTRIC-NH2; disulfide 4-17; N-terminus assumed) | – | – | – | – | – | – | – | – | – | – | – | – | – | – | – | – | – | – | – | – | MIC, Colletotrichum gloeosporioides [1]: >12 µM; MIC (μM) (SFM + 2 mM CaCl2) [2]: 12 µM; MIC (μM) (SFM + 100 mM KCl) [2]: 6 to 12 µM; MIC (μM) (SFM + 100 mM NaCl) [2]: 3 µM; MIC (μM) SFM [2]: 3 µM (≈ 6.3 µg/mL); Reduction of gray mold disease symptoms [3]: effective in reducing gray mold disease symptoms; MIC, Cercospora sojina [4]: 6 µM (≈ 12.6 µg/mL); MIC, Alternaria alternata [5]: >12 µM |
| N=C(N)NCCC[C@H](NC(=O)CNC(=O)[C@@H](N)Cc1ccccc1)C(=O)N[C@@H](CS)C(=O)N[C@@H](CCCNC(=N)N)C(=O)NCC(=O)N[C@@H](Cc1ccccc1)C(=O)N[C@@H](CCCNC(=N)N)C(=O)N[C@@H](CCCNC(=N)N)C(=O)N[C@@H](CCCNC(=N)N)C(=O)N[C@@H](CS)C(=O)N[C@@H](Cc1ccccc1)C(=O)N[C@@H](CS)C(=O)N[C@@H](Cc1c[nH]c2ccccc12)C(=O)N[C@@H](CCCNC(=N)N)C(=O)N[C@@H](Cc1c[nH]c2ccccc12)C(=O)N[C@@H](CS)C(N)=O [GMA4C_V4A] (H-FGRCRGFRRRCFCWRWC-NH2; N-terminus assumed) | 1.5 µM (≈ 3.44 µg/mL) | 1.5 µM (≈ 3.44 µg/mL) | 3 to 6 µM | 1.5 µM | 1.5 µM | 1.5 to 3 µM | 4 µg/mL (≈ 1.74 µM) | 16 µg/mL (≈ 6.97 µM) | 16 µg/mL (≈ 6.97 µM) | 8 µg/mL (≈ 3.49 µM) | 8 µg/mL (≈ 3.49 µM) | 16 µg/mL (≈ 6.97 µM) | 16 µg/mL (≈ 6.97 µM) | 32 µg/mL (≈ 13.9 µM) | 8 µg/mL (≈ 3.49 µM) | 8 µg/mL (≈ 3.49 µM) | 8 µg/mL (≈ 3.49 µM) | 8 µg/mL (≈ 3.49 µM) | 8 µg/mL (≈ 3.49 µM) | 8 µg/mL (≈ 3.49 µM) | Fungal growth inhibition in presence of 2 mM CaCl2 [2]: inhibit fungal growth; Potency relative to GMA4C_AC in presence of cations [2]: 2 fold; MIC 100% ([13]; Candida auris DI17-48): 8 µg/mL (≈ 3.49 µM); MIC 100% ([14]; Candida albicans ATCC 90028): 8 µg/mL (≈ 3.49 µM); MIC 100% ([14]; Candida albicans CA3): 8 µg/mL (≈ 3.49 µM); MIC 100% ([14]; Candida albicans SC5314): 8 µg/mL (≈ 3.49 µM) |
| NCC[C@H](NC(=O)CNC(=O)[C@@H](N)Cc1ccccc1)C(=O)N[C@@H](CS)C(=O)N[C@@H](CCN)C(=O)NCC(=O)N[C@@H](Cc1ccccc1)C(=O)N[C@@H](CCN)C(=O)N[C@@H](CCN)C(=O)N[C@@H](CCN)C(=O)N[C@@H](CS)C(=O)N[C@@H](Cc1ccccc1)C(=O)N[C@@H](CS)C(=O)N[C@@H](Cc1c[nH]c2ccccc12)C(=O)N[C@@H](CCN)C(=O)N[C@@H](Cc1c[nH]c2ccccc12)C(=O)N[C@@H](CS)C(N)=O [GMA4C_V5A, FG(Dab)C(Dab)GF(Dab)(Dab)(Dab)CFCW(Dab)WC-NH2] (H-FG[Dab]C[Dab]GF[Dab][Dab][Dab]CFCW[Dab]WC-NH2; N-terminus assumed) | 6 µM (≈ 11.8 µg/mL) | 3 µM (≈ 5.88 µg/mL) | >6 µM | >6 µM | 6 µM | 6 µM | 2 µg/mL (≈ 1.02 µM) | 16 µg/mL (≈ 8.17 µM) | 16 µg/mL (≈ 8.17 µM) | 8 µg/mL (≈ 4.08 µM) | 8 µg/mL (≈ 4.08 µM) | 32 µg/mL (≈ 16.3 µM) | >32 µg/mL | >32 µg/mL | 8 µg/mL (≈ 4.08 µM) | 8 µg/mL (≈ 4.08 µM) | 16 µg/mL (≈ 8.17 µM) | 4 µg/mL (≈ 2.04 µM) | 16 µg/mL (≈ 8.17 µM) | 16 µg/mL (≈ 8.17 µM) | MIC 100% ([13]; Candida auris DI17-48): 16 µg/mL (≈ 8.17 µM); MIC 100% ([14]; Candida albicans ATCC 90028): 16 µg/mL (≈ 8.17 µM); MIC 100% ([14]; Candida albicans CA3): 8 µg/mL (≈ 4.08 µM); MIC 100% ([14]; Candida albicans SC5314): 16 µg/mL (≈ 8.17 µM) |
